According to ChEMBL document CHEMBL1629425, “Antibacterial prenylated acylphloroglucinols from the fern Elaphoglossum yungense” (2010):
In brackets after ≈: the same amount, converted by molar mass. Activity calls are given as the source filed them. No cut-off for these calls is given here.

Tests used:
Staphylococcus aureus [1] = assay: Antibacterial activity against Staphylococcus aureus ATCC 6738 after 24 hrs by Broth micro dilution method; format: functional; details: ATCC 6738, 24 h
Pseudomonas aeruginosa [2] = assay: Antibacterial activity against Pseudomonas aeruginosa ATCC 27853 after 24 hrs by Broth micro dilution method; format: functional; details: ATCC 27853, 24 h
Staphylococcus aureus [3] = assay: Antibacterial activity against Staphylococcus aureus ATCC 6738 assessed as growth inhibition at 10 ug/ml after 24 hrs by Broth micro dilution method relative to control; format: functional; details: ATCC 6738, 24 h, read-out: GI
Pseudomonas aeruginosa [4] = assay: Antibacterial activity against Pseudomonas aeruginosa ATCC 27853 assessed as growth inhibition at 10 ug/ml after 24 hrs by Broth micro dilution method relative to control; format: functional; details: ATCC 27853, 24 h, read-out: GI
Staphylococcus aureus [5] = assay: increase in biofilm formation of Staphylococcus aureus ATCC 6738 at 10 ug/ml relative to control; format: functional, organism-based

Structure (SMILES)	MBC (Staphylococcus aureus [1])	MIC (Staphylococcus aureus [1])	MBC (Pseudomonas aeruginosa [2])	MIC (Pseudomonas aeruginosa [2])	inhibition of growth at 10 µg/mL (Staphylococcus aureus [3])	inhibition of growth at 10 µg/mL (Pseudomonas aeruginosa [4])	Activity (Staphylococcus aureus [5])
CCCC(=O)c1c(O)c(CC2=C(O)C(C)(C/C=C(\C)CCC=C(C)C)C(O)=C(C(C)=O)C2=O)c(O)c2c1OC(C)(C)C=C2 (stereo not given) [YUNGENSIN A]	50 µg/mL (≈ 84.4 µM)	10 µg/mL (≈ 16.9 µM)	50 µg/mL (≈ 84.4 µM)	10 µg/mL (≈ 16.9 µM)	99%	99%	inactive
CCCCCC(=O)c1c(O)c(CC2=C(O)C(C)(C/C=C(\C)CCC=C(C)C)C(O)=C(C(C)=O)C2=O)c(O)c2c1OC(C)(C)C=C2 (stereo not given) [YUNGENSIN B]	100 µg/mL (≈ 161 µM)	10 µg/mL (≈ 16.1 µM)	50 µg/mL (≈ 80.5 µM)	10 µg/mL (≈ 16.1 µM)	99%	99%	inactive
CCCC(=O)c1c(O)c(CC2=C(O)C(C)(C/C=C(\C)CCC=C(C)C)C(O)=C(C(C)=O)C2=O)c(O)c2c1OC(C)(CCC=C(C)C)C=C2 (stereo not given) [YUNGENSIN C]	100 µg/mL (≈ 151 µM)	50 µg/mL (≈ 75.7 µM)	50 µg/mL (≈ 75.7 µM)	50 µg/mL (≈ 75.7 µM)	92%	87%	–
CCCC(=O)c1c(O)c(CC=C(C)C)c(O)c(CC2=C(O)C(C)(C/C=C(\C)CCC=C(C)C)C(O)=C(C(C)=O)C2=O)c1O (stereo not given) [YUNGENSIN D]	> 200 µg/mL	100 µg/mL (≈ 168 µM)	100 µg/mL (≈ 168 µM)	50 µg/mL (≈ 84.1 µM)	83%	86%	–
CCCC(=O)c1c(O)c(C/C=C(\C)CCC=C(C)C)c(O)c(CC2=C(O)C(C)(C/C=C(\C)CCC=C(C)C)C(O)=C(C(C)=O)C2=O)c1O (stereo not given) [YUNGENSIN E]	200 µg/mL (≈ 302 µM)	100 µg/mL (≈ 151 µM)	200 µg/mL (≈ 302 µM)	100 µg/mL (≈ 151 µM)	87%	87%	inactive
CCCC(=O)c1c(O)c2c(c(CC3=C(O)C(C)(C/C=C(\C)CCC=C(C)C)C(O)=C(C(C)=O)C3=O)c1O)OC(C)(C)C=C2 (stereo not given) [YUNGENSIN F]	100 µg/mL (≈ 169 µM)	50 µg/mL (≈ 84.4 µM)	50 µg/mL (≈ 84.4 µM)	50 µg/mL (≈ 84.4 µM)	93%	86%	inactive
